Data on one compound can be found in US9090633B2, “Substituted 4-(arylamino) selenophenopyrimidine compounds and methods of use thereof” (KASINA LAILA INNOVA PHARMACEUTICALS PRIVATE LIMITED, priority 2010, dated 2013).

pIC50: −log10 of the molar value.

For assay [1], the system named is human Hepatocellular carcinoma HepG2 cells. In words: MTT based cell proliferation assay, HepG2. The procedure:
(§1) MTT [3-(4,5-dimethylthiazol-2-yl)-2,5-diphenyltetrazolium bromide incorporation based cell proliferation assay was performed using standard procedure. […] The assay was carried out according to the instructions provided by the vendor. […] Vehicle control culture wells received only a maximum of 0.5% DMSO. Thereafter, 0.5 mg/ml of MTT reagent was added to each well and the microplate was incubated further for 4 h at 37° C. in presence of 5% CO2. Finally, the cells were solubilized by adding solubilizing solution and allowed to incubate at 37° C. overnight. After complete solubilization of the formazan crystals the absorbance was read at 540 nm in a microplate reader (BioRad, USA).
(§2) The evaluation of cell proliferation inhibitory activities of the compounds was done in two phases—(1) Screening, and (2) half-maximal inhibitory concentration (IC50) determination. In the screening phase, the cells were treated with different concentrations.

For assay [2], the system named is human colorectal carcinoma HT29 cells. The assay can be described thus: MTT based cell proliferation assay, HT29. As for the experimental part:
as §1, §2

The subject of assay [3] is human lung carcinoma A549 cells. The assay can be described thus: MTT based cell proliferation assay, A549. As for the experimental part:
as §1, §2

The subject of assay [4] is human breast carcinoma (estrogen receptor negative) MDA-MB-231 cells. In words: MTT based cell proliferation assay, MDA-MB-231. As for the experimental part:
as §1, §2

The test system of assay [5] is human cervical carcinoma HeLa cells. The assay can be described thus: MTT based cell proliferation assay, HeLa. As for the experimental part:
as §1, §2

Assay [6] has as its system human prostate DU145 cells. The assay can be described thus: MTT based cell proliferation assay, DU145. As for the experimental part:
as §1, §2

Regarding `CN(c1ccc(Cl)cc1)c1ncnc2[se]c3c(c12)CCNC3` [Compound 33], the “more potent than Gefitinib (Iressa) in inhibiting tumor cells proliferation” value in assay [1] (HepG2, from IC50 values) turned out to be 241%; in assay [2] (HT29, from IC50 values), 257.8%; in assay [3] (A549, from IC50 values), 101%; in assay [4] (MDA-MB-231, from IC50 values), 122%; in assay [5] (from IC50 values) it was 117%; in assay [6] (DU145, from IC50 values), 6.8%. For the same compound, the pIC50 in assay [1] (Homo sapiens, HepG2, 72 h, read-out: Cell proliferation inhibition (IC50) in HepG2 (Hepatocellular Carcinoma)) is 4.98; in assay [2] (Homo sapiens, HT-29, 72 h, read-out: Cell proliferation inhibition in HT29 (Colon carcinoma), IC50) it was 4.88; in assay [3] (Homo sapiens, A549, 72 h, read-out: Cell proliferation inhibition in A549 (Lung carcinoma), IC50), 4.55; in assay [4] (Homo sapiens, MDA-MB-231, 72 h, read-out: Cell proliferation inhibition (IC50) in MDA-MB-231 (Breast Carcinoma)), 4.69; in assay [5] (Homo sapiens, 72 h, read-out: Cell proliferation inhibition (IC50) in HeLa (Cervical Carcinoma)) it was 4.64; in assay [6] (Homo sapiens, DU-145, 72 h, read-out: Cell proliferation inhibition in DU145 (Prostate carcinoma), IC50), 4.53.
